Measurements from patent publication US4021564A, “Neuroleptic piperidine compounds” (AB Ferrosan, priority 1975, dated 1977).

Columns and labels:
rats = assay: Inhibition of Conditioned Avoidance Response in rats; type: in vivo; conditions: Rattus norvegicus, sc, 1.5 hrs.
Excerpt: (b) Inhibition of conditioned behavior in rats. These tests have been described, and the importance of coordinating the compounds with these tests and the activities shown thereby is described in detail in the following literature: (b) Inhibition of Conditioned Avoidance Response "Neuroleptics characteristically interrupt the response to the warning stimulus (avoidance) without at the same time interrupting the response to the noxious stimulus (escape) which follows it." An introduction to Psycho-Pharmacology, Eds. Rech and Moore, New York, p. 264 (1971); Courvoisier, S., et al., in Arch. Int. Pharmacodyn. 92, 305 (1953); Jacobsen, E., in Psychotrophic Drugs, […], Amsterdam, p. 119 (1957). Jacobsen and Sonne, in Acta Pharmacol. et Toxicol. 11, pp. 135-147 (1955).

mice = assay: Inhibition of Exploratory Behavior (Climbing) in mice; type: in vivo; conditions: Mus musculus, sc, 1 hr.
Excerpt: (a) Inhibition of climbing in mice (inhibition of exploratory behavior). These tests have been described, and the importance of coordinating the compounds with these tests and the activities shown thereby is described in detail in the following literature: (a) Inhibition of Exploratory Behavior (Climbing) van Rossum, J.M., et al., in The Neuroleptics, Modern Problems of Pharmaco-[…], Vol. 5, […]., in Arch. Int. Pharmacodyn 126, 238 (1960). Sandberg, S., in Arzneimittelforschung 9, 203 (1958).

Acute Toxicity in Mice = conditions: mouse, in vivo

Compound	ED50 (rats) [mg/kg]	ED50 (mice) [mg/kg]	LD50 at 48 h (Acute Toxicity in Mice; po) [mg/kg]	LD50 at 48 h (Acute Toxicity in Mice; sc) [mg/kg]
Cc1ccc(C(=O)C2(O)CCN(CCCC(=O)c3ccc(F)cc3)CC2)cc1 [CH3, 1-[3-(p-fluorobenzoyl)propyl]-4-(p-methylbenzoyl)-4-hydroxypiperidine]	0.32	0.8	> 1000	> 1000
O=C(CCCN1CCC(O)(C(=O)c2ccc(Cl)cc2)CC1)c1ccc(F)cc1 [Cl, 1-[3-(p-fluorobenzoyl)propyl]-4-(p-chlorobenzoyl)-4-hydroxypiperidine]	0.37	0.95	630	> 1000
Cl.O=C(CCCN1CCC(O)(C(=O)c2ccc(F)cc2)CC1)c1ccc(F)cc1 [F, 1-[3-(p-fluorobenzoyl)propyl]-4-(p-fluorobenzoyl)-4-hydroxypiperidine hydrochloride]	0.13	0.19	500	> 1000
COc1ccc(C(=O)C2(O)CCN(CCCC(=O)c3ccc(F)cc3)CC2)cc1 [OCH3, 1-[3-(p-fluorobenzoyl)propyl]-4-(p-methoxybenzoyl)-4-hydroxypiperidine]	0.24	1	890	> 1000
